In patent US6844358B2, “Phenyl oxo-acetic acids useful in the treatment of insulin resistance and hyperglycemia” (Wyeth, priority 1998, dated 2005):
Where two headings read alike, the source gives them in different places.

Assays:
diabetic (ob/ob) mice = experiment: Blood glucose lowering activity in diabetic (ob/ob) mice; type: in vivo; settings: Mus musculus, po
Procedure: The procedures used and results obtained are briefly described below. […]
In each test procedure, mice [Male or female ob/ob (C57 B1/6J) and their lean litermates (ob/+ or +/+, Jackson Laboratories) ages 2 to 5 months (10 to 65 g)] of a similar age were randomized according to body weight into 4 groups of 10 mice. The mice were housed 5 per cage and are maintained on normal rodent chow with water ad libitum. Mice received test compound daily by gavage (suspended in 0.5 ml of 0.5% methyl cellulose); dissolved in the drinking water; or admixed in the diet. The dose of compounds given ranges from 2.5 to 200 mg/kg body weight/day. The dose is calculated based on the fed weekly body weight and is expressed as active moiety. […] Control mice received vehicle only.
On the morning of Day 4, 7 or 14 two drops of blood (approximetly 50 ul) were collected into sodium fluoride containing tubes either from the tail vein or after decapitation. For those studies in which the compound was administered daily by gavage the blood samples were collected two hours after compound administration. […]
Analysis of variance followed by Dunett's Comparison Test (one-tailed) are used to estimate the significant difference between the plasma glucose values from the control group and the individual compound treated groups (CMS SAS Release 5.18).

[1] = system: rat hepatic microsomal PTPases; settings: rat hepatic microsomal PTPase; for % Change from Control at 50 μM: 50 μM compound; for IC50: dodecaphosphopeptide substrate 50 uM
[2] = biological target: T1, recombinant rat protein tyrosine phosphatase, PTP1B (rPTP1B) (Rattus norvegicus, UniProt P20417); type: biochemical; settings: for % change from control at 10 μM: 10 μM compound
T1 sequence (P20417 1-432): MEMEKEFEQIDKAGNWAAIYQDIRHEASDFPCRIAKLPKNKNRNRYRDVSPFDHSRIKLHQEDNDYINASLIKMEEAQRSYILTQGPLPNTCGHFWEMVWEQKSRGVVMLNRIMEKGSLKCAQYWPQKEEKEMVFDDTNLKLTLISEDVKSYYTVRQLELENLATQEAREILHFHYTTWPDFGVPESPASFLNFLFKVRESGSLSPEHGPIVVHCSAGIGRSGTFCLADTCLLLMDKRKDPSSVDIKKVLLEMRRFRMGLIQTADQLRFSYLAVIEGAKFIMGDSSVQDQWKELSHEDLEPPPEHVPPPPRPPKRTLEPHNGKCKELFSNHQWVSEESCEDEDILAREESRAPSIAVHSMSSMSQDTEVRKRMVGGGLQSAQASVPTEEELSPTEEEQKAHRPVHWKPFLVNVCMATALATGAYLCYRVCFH

[3] = 96 h, plasma glucose on Day 4, 7 or 14, suffix a = no significant activity at this dose, read-out: % Change Glucose from Vehicle
[4] = suffix a = no significant activity at this dose, read-out: % Change Insulin from Vehicle

SMILES | melting point | % Change from Control at 50 μM [1] | % change from control at 10 μM ([2]; rPTP1B) | IC50 [1] | IC50 ([2]; rPTP1B, read-out: IC50) | change in vivo at 100 mg/kg (diabetic (ob/ob) mice; [3]) | change in vivo at 100 mg/kg (diabetic (ob/ob) mice; [4]) | IC50 [2]
CCc1oc2ccccc2c1C(=O)c1cc(Br)c(OCC(=O)O)c(Br)c1 [Example 2, [2,6-dibromo-4-(2-ethyl-benzofuran-3-carbonyl)-phenoxy]-acetic acid] | 135 to 137 °C | −25% | −30 (rPTP1B) % |  |  | -48.1% | -78.2% | 
CCc1oc2ccccc2c1C(=O)c1cc(Br)c(O)c(Br)c1 [Example 1, (2-Ethyl-benzofuran-3-yl)-(3,5-dibromo-4-hydroxy-phenyl)-methanone] |  |  |  | 70.1 µM |  | -44.6% | -89.5% | 25.8 µM
O=C(O)COc1c(Br)cc(C(=O)c2c(Cc3ccccc3)oc3ccccc23)cc1Br [Example 10, [4-(2-Benzyl-benzofuran-3-carbonyl)-2,6-dibromo-phenoxy]-acetic acid] | 165 to 167 °C |  | −75 (rPTP1B) % | 36 µM |  | -17.7% | -70% | 
CCc1oc2ccccc2c1C(=O)c1c(Br)cc(Br)c(O)c1Br [Example 8, (2-Ethyl-benzofuran-3-yl)-(2,4,6-tribromo-3-hydroxy-phenyl)-methanone] | 153 to 154 °C |  | −61 (rPTP1B) % | 17.5 µM |  | -3.3% | -31.2% | 
CCCCc1oc2ccccc2c1C(=O)c1cc(Br)c(O)c(Br)c1 [Example 6, (2-Butyl-benzofuran-3-yl)-(3,5-dibromo-4-dihydroxy-phenyl)-methanone] |  |  | −90 (rPTP1B) % | 24.2 µM |  | -40.6% | -70.4% | 
O=C(c1cc(Br)c(OCP(=O)(O)O)c(Br)c1)c1c(Cc2ccccc2)sc2ccccc12 [Example 21, [4-(2-benzyl-benzo[b]thiophen-3-carbonyl)-2,6-dibromo-phenoxymethyl]-phosphonic acid] | 210 to 212 °C |  | −35 (rPTP1B) % | 34.5 µM |  |  |  | 
O=C(O)COc1c(Br)cc(C(=O)c2c(CCc3ccccc3)oc3ccccc23)cc1Br [Example 19, [2,6-Dibromo-4-(2-phenethyl-benzofuran-3-carbonyl)-phenoxy]-acetic acid] | 163 to 164 °C |  | −53 (rPTP1B) % | 26.3 µM |  |  |  | 
O=C(c1cc(Br)c(O)c(Br)c1)c1c(Cc2ccccc2)oc2ccccc12 [Example 14, (2-Benzyl-benzofuran-3-yl)-(3,5-dibromo-4-hydroxy-phenyl)-methanone] | 156 to 158 °C |  | −81 (rPTP1B) % | 27.8 µM |  | -36.8% | -40.7% | 
CCc1oc2ccc(Cl)cc2c1C(=O)c1cc(Br)c(OCC(=O)O)c(Br)c1 [Example 20, [2,6-dibromo-4-(5-chloro-2-ethyl-1-benzofuran-3-carbonyl)-phenoxy]-acetic acid] | 175 to 177 °C |  | −34 (rPTP1B) % | 40.4 µM |  |  |  | 
CCc1oc2ccccc2c1Cc1cc(Br)c(O)c(Br)c1 [Example 3, 2,6-Dibromo-4-(2-ethyl-benzofuran-3-yl-methyl)-phenol] | 87 to 88 °C | −34% | −74 (rPTP1B) % |  |  | -6.2% | -56.6% | 
CCc1oc2ccccc2c1C(=O)c1cc(Br)c(O)c(Br)c1O [Example 4, (3,5-Dibromo-2,4-dihydroxy-phenyl)-(2-ethyl-benzofuran-3-yl)-methanone] | 150 to 151 °C |  | −64 (rPTP1B) % | 34.3 µM |  | -19.8% | -61.8% | 
CC1(COc2ccc(CC3SC(=O)NC3=O)cc2)CCCCC1 (centres unmarked) [Ciglitazone, 5-(4-(1-methylcyclohexylmethoxy)benzyl)-2,4-dione, reference compound] |  |  |  |  |  | -43% | -39% | 

Further compounds by falling IC50 [1], results first:

melting point | % Change from Control at 50 μM [1] | % change from control at 10 μM ([2]; rPTP1B) | IC50 [1] | IC50 ([2]; rPTP1B, read-out: IC50) | SMILES | change in vivo at 100 mg/kg (diabetic (ob/ob) mice; [3]) | change in vivo at 100 mg/kg (diabetic (ob/ob) mice; [4]) | IC50 [2]
92 to 94 °C |  | −78 (rPTP1B) % | 31.2 µM |  | CCCCc1oc2ccccc2c1C(=O)c1cc(Br)c(OCC(=O)O)c(Br)c1 [Example 5, [2,6-Dibromo-4-(2-butyl-benzofuran-3-carbonyl)-phenoxy]-acetic acid] | -20.1% | -54.8% | 
 |  | −60 (rPTP1B) % | 30.7 µM |  | CCc1oc2ccccc2c1C(=O)c1cc(I)c(O)c(I)c1 [Example 18, (2-ethyl-benzofuran-3-yl)-(4-hydroxy-3,5-diiodo-phenyl)-methanone] | -39.6% | -83.6% | 
144 to 146 °C |  | −97 (rPTP1B) % | 28.4 µM |  | O=C(O)COc1c(I)cc(C(=O)c2c(Cc3ccccc3)oc3ccccc23)cc1I [Example 17, [4-(2-Benzyl-benzofuran-3-carbonyl)-2,6-diiodo-phenoxy]-acetic acid] |  |  | 
162 to 163 °C |  | −88 (rPTP1B) % | 27.8 µM |  | O=C(O)COc1c(Br)cc(C(=O)c2c(Cc3ccccc3)sc3ccccc23)cc1Br [Example 12, [4-(2-Benzyl-benzo[b]thiophen-3-carbonyl)-2,6-dibromo-phenoxy]-acetic acid] | -30.7% | -60.7% | 
 |  | −64 (rPTP1B) % | 27.1 µM |  | CCc1oc2ccc(Cl)cc2c1C(=O)c1cc(Br)c(O)c(Br)c1 [Example 13, (5-Chloro-2-ethyl-benzofuran-3-yl)-(3,5-dibromo-4-hydroxy-phenyl)-methanone] | -12% | -74.5% | 
153 to 154 °C |  | −99 (rPTP1B) % | 22.7 µM |  | O=C(c1cc(I)c(O)c(I)c1)c1c(Cc2ccccc2)oc2ccccc12 [Example 9, (2-Benzyl-benzofuran-3-yl)-(4-hydroxy-3,5-diiodo-phenyl)-methanone] | -37.1% | -73.7% | 
153 to 154 °C |  |  | 20.5 µM | 2.6 µM | O=C(c1cc(Br)c(O)c(Br)c1)c1c(CCc2ccccc2)oc2ccccc12 [Example 15, (3,5-Dibromo-4-hydroxy-phenyl)-(2-phenethyl-benzofuran-3-yl)-methanone] | -32.8% | -10.3% | 
